Measurements: PubChem BioAssay (NCI)
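The concentration for 50% growth inhibition is given as GI50. TGI: concentration producing complete growth inhibition.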

Legend:
Experiment in all cases: NCI-60 cell line screen, 384-well format; in the data active = GI50 below about 0.43 µM; inactive = the rest
EKVX NSCLC = tested on: EKVX NSCLC
RPMI-8226 leukemia = tested on: RPMI-8226 leukemia
HL-60(TB) leukemia = tested on: HL-60(TB) leukemia
OVCAR-4 ovarian = tested on: OVCAR-4 ovarian
UO-31 renal = tested on: UO-31 renal
SNB-19 CNS = tested on: SNB-19 CNS
MALME-3M melanoma = tested on: MALME-3M melanoma
HCT-15 colon = tested on: HCT-15 colon
SNB-75 CNS = tested on: SNB-75 CNS
HOP-92 NSCLC = tested on: HOP-92 NSCLC
SK-OV-3 ovarian = tested on: SK-OV-3 ovarian
NCI-H322M lung = tested on: NCI-H322M lung
RXF 393 renal = tested on: RXF 393 renal
MDA-MB-231 breast = tested on: MDA-MB-231 breast
MOLT-4 leukemia = tested on: MOLT-4 leukemia
TK-10 renal = tested on: TK-10 renal
SF-539 CNS = tested on: SF-539 CNS
NCI/ADR-RES ovarian = tested on: NCI/ADR-RES ovarian
OVCAR-3 ovarian = tested on: OVCAR-3 ovarian
LOX IMVI melanoma = tested on: LOX IMVI melanoma
NCI-H23 lung = tested on: NCI-H23 lung
MCF7 breast = tested on: MCF7 breast
SF-268 CNS = tested on: SF-268 CNS
SK-MEL-5 melanoma = tested on: SK-MEL-5 melanoma
SK-MEL-2 melanoma = tested on: SK-MEL-2 melanoma
A549 NSCLC = tested on: A549 NSCLC
HOP-62 NSCLC = tested on: HOP-62 NSCLC
DU-145 prostate = tested on: DU-145 prostate
MDA-MB-435 melanoma = tested on: MDA-MB-435 melanoma
BT-549 breast = tested on: BT-549 breast
SR leukemia = tested on: SR leukemia
CCRF-CEM leukemia = tested on: CCRF-CEM leukemia
HCC-2998 colon = tested on: HCC-2998 colon
786-0 renal = tested on: 786-0 renal
NCI-H226 lung = tested on: NCI-H226 lung
HCT-116 colon = tested on: HCT-116 colon
IGROV1 ovarian = tested on: IGROV1 ovarian
UACC-257 melanoma = tested on: UACC-257 melanoma
UACC-62 melanoma = tested on: UACC-62 melanoma
HS 578T breast = tested on: HS 578T breast
NCI-H460 NSCLC = tested on: NCI-H460 NSCLC
SK-MEL-28 melanoma = tested on: SK-MEL-28 melanoma
U251 glioblastoma = tested on: U251 glioblastoma
SW-620 colon = tested on: SW-620 colon
A498 renal = tested on: A498 renal
KM12 colon = tested on: KM12 colon
M14 melanoma = tested on: M14 melanoma
SN12C renal = tested on: SN12C renal
OVCAR-8 ovarian = tested on: OVCAR-8 ovarian
HT29 colon = tested on: HT29 colon
COLO 205 colon = tested on: COLO 205 colon
CAKI-1 renal = tested on: CAKI-1 renal
T-47D breast = tested on: T-47D breast
OVCAR-5 ovarian = tested on: OVCAR-5 ovarian
ACHN renal = tested on: ACHN renal
MDA-MB-468 breast = tested on: MDA-MB-468 breast
NCI-H522 lung = tested on: NCI-H522 lung
PC-3 prostate = tested on: PC-3 prostate
SF-295 CNS = tested on: SF-295 CNS

C[C@@]1(O)CCC[C@H]1n1c(=O)c(C(F)F)cc2cnc(NC3CCN(S(C)(=O)=O)CC3)nc21
9.28 µM: TGI (MDA-MB-435 melanoma)
4.21 µM: TGI (SK-MEL-2 melanoma)
3.16 µM: TGI (MALME-3M melanoma)
2.94 µM: TGI (UACC-62 melanoma)
5.49 µM: TGI (M14 melanoma)
inactive: GI50 (EKVX NSCLC) 1.9 µM | GI50 (OVCAR-4 ovarian) 3.04 µM | GI50 (UO-31 renal) 1.01 µM | GI50 (SNB-19 CNS) 2.4 µM | GI50 (MALME-3M melanoma) 1.44 µM | GI50 (HCT-15 colon) 1.79 µM | GI50 (SNB-75 CNS) 1.42 µM | GI50 (HOP-92 NSCLC) 2.05 µM | GI50 (SK-OV-3 ovarian) 3.01 µM | GI50 (NCI-H322M lung) 2.07 µM | GI50 (RXF 393 renal) 1.44 µM | GI50 (MDA-MB-231 breast) 2.34 µM | GI50 (MOLT-4 leukemia) 0.445 µM | GI50 (TK-10 renal) 1.15 µM | GI50 (SF-539 CNS) 1.3 µM | GI50 (NCI/ADR-RES ovarian) 21 µM | GI50 (OVCAR-3 ovarian) 1.52 µM | GI50 (LOX IMVI melanoma) 1.6 µM | GI50 (NCI-H23 lung) 1.68 µM | GI50 (SF-268 CNS) 1.69 µM | GI50 (SK-MEL-2 melanoma) 2.25 µM | GI50 (A549 NSCLC) 1.98 µM | GI50 (HOP-62 NSCLC) 1.8 µM | GI50 (DU-145 prostate) 1.63 µM | GI50 (MDA-MB-435 melanoma) 1.63 µM | GI50 (BT-549 breast) 0.866 µM | GI50 (HCC-2998 colon) 1.38 µM | GI50 (786-0 renal) 1.85 µM | GI50 (NCI-H226 lung) 1.1 µM | GI50 (IGROV1 ovarian) 1.62 µM | GI50 (UACC-257 melanoma) 1.63 µM | GI50 (UACC-62 melanoma) 0.951 µM | GI50 (HS 578T breast) 1.92 µM | GI50 (SK-MEL-28 melanoma) 1.21 µM | GI50 (U251 glioblastoma) 2.03 µM | GI50 (A498 renal) 1.75 µM | GI50 (KM12 colon) 1.07 µM | GI50 (M14 melanoma) 1.47 µM | GI50 (SN12C renal) 1.99 µM | GI50 (OVCAR-8 ovarian) 1.54 µM | GI50 (HT29 colon) 1.83 µM | GI50 (COLO 205 colon) 1.33 µM | GI50 (CAKI-1 renal) 0.784 µM
6.59 µM: TGI (HOP-62 NSCLC)
1.93 µM: TGI (MOLT-4 leukemia)
1.2 µM: TGI (HL-60(TB) leukemia)
5.8 µM: TGI (NCI-H322M lung)
3.02 µM: TGI (SNB-75 CNS)
8.8 µM: TGI (U251 glioblastoma)
1.77 µM: TGI (CCRF-CEM leukemia)
active: GI50 (RPMI-8226 leukemia) 0.029 µM | GI50 (HL-60(TB) leukemia) 0.0721 µM | GI50 (MCF7 breast) 0.128 µM | GI50 (SK-MEL-5 melanoma) 0.0993 µM | GI50 (SR leukemia) 0.0344 µM | GI50 (CCRF-CEM leukemia) 0.357 µM | GI50 (HCT-116 colon) 0.198 µM | GI50 (NCI-H460 NSCLC) 0.0589 µM | GI50 (SW-620 colon) 0.0944 µM
5.57 µM: TGI (OVCAR-3 ovarian)
4.13 µM: TGI (UO-31 renal)
4.74 µM: TGI (COLO 205 colon)
0.0951 µM: TGI (RPMI-8226 leukemia)
2.28 µM: TGI (SK-MEL-5 melanoma)
6.38 µM: TGI (DU-145 prostate)
2.89 µM: TGI (SF-539 CNS)
15.8 µM: TGI (HCT-15 colon)
2.91 µM: TGI (SK-MEL-28 melanoma)
4.04 µM: TGI (SF-268 CNS) | TGI (HS 578T breast)
1.08 µM: TGI (SR leukemia)
2.18 µM: TGI (NCI-H460 NSCLC)
3.3 µM: TGI (NCI-H23 lung)
4.92 µM: TGI (SN12C renal)
3.04 µM: TGI (BT-549 breast)
> 100 µM: TGI (SNB-19 CNS) | TGI (HOP-92 NSCLC) | TGI (SK-OV-3 ovarian) | TGI (MDA-MB-231 breast) | TGI (TK-10 renal) | TGI (NCI/ADR-RES ovarian) | TGI (LOX IMVI melanoma) | TGI (A549 NSCLC) | TGI (786-0 renal) | TGI (NCI-H226 lung) | TGI (HCT-116 colon) | TGI (IGROV1 ovarian) | TGI (SW-620 colon) | TGI (A498 renal) | TGI (OVCAR-8 ovarian) | TGI (HT29 colon) | TGI (CAKI-1 renal)
3.92 µM: TGI (KM12 colon)
2.88 µM: TGI (RXF 393 renal)
19.1 µM: TGI (MCF7 breast)
3.97 µM: TGI (UACC-257 melanoma)
7.15 µM: TGI (OVCAR-4 ovarian)
5.15 µM: TGI (EKVX NSCLC)
3.9 µM: TGI (HCC-2998 colon)

COc1c2occc2cc2ccc(=O)oc12
> 100 µM: TGI (EKVX NSCLC) | TGI (RPMI-8226 leukemia) | TGI (HL-60(TB) leukemia) | TGI (T-47D breast) | TGI (OVCAR-4 ovarian) | TGI (SNB-19 CNS) | TGI (MALME-3M melanoma) | TGI (HCT-15 colon) | TGI (SNB-75 CNS) | TGI (HOP-92 NSCLC) | TGI (SK-OV-3 ovarian) | TGI (NCI-H322M lung) | TGI (RXF 393 renal) | TGI (OVCAR-5 ovarian) | TGI (MDA-MB-231 breast) | TGI (MOLT-4 leukemia) | TGI (TK-10 renal) | TGI (ACHN renal) | TGI (SF-539 CNS) | TGI (NCI/ADR-RES ovarian) | TGI (OVCAR-3 ovarian) | TGI (MDA-MB-468 breast) | TGI (NCI-H23 lung) | TGI (MCF7 breast) | TGI (SF-268 CNS) | TGI (SK-MEL-5 melanoma) | TGI (SK-MEL-2 melanoma) | TGI (A549 NSCLC) | TGI (HOP-62 NSCLC) | TGI (NCI-H522 lung) | TGI (DU-145 prostate) | TGI (MDA-MB-435 melanoma) | TGI (BT-549 breast) | TGI (SR leukemia) | TGI (CCRF-CEM leukemia) | TGI (HCC-2998 colon) | TGI (786-0 renal) | TGI (NCI-H226 lung) | TGI (IGROV1 ovarian) | TGI (UACC-257 melanoma) | TGI (UACC-62 melanoma) | TGI (HS 578T breast) | TGI (NCI-H460 NSCLC) | TGI (SK-MEL-28 melanoma) | TGI (U251 glioblastoma) | TGI (SW-620 colon) | TGI (A498 renal) | TGI (KM12 colon) | TGI (PC-3 prostate) | TGI (M14 melanoma) | TGI (SF-295 CNS) | TGI (SN12C renal) | TGI (OVCAR-8 ovarian) | TGI (HT29 colon) | TGI (COLO 205 colon) | TGI (CAKI-1 renal)
inactive: GI50 (EKVX NSCLC) 93.1 µM | GI50 (RPMI-8226 leukemia) > 100 µM | GI50 (HL-60(TB) leukemia) > 100 µM | GI50 (T-47D breast) > 100 µM | GI50 (OVCAR-4 ovarian) > 100 µM | GI50 (SNB-19 CNS) > 100 µM | GI50 (MALME-3M melanoma) > 100 µM | GI50 (HCT-15 colon) > 100 µM | GI50 (SNB-75 CNS) 73.3 µM | GI50 (HOP-92 NSCLC) > 100 µM | GI50 (SK-OV-3 ovarian) > 100 µM | GI50 (NCI-H322M lung) > 100 µM | GI50 (RXF 393 renal) > 100 µM | GI50 (OVCAR-5 ovarian) > 100 µM | GI50 (MDA-MB-231 breast) > 100 µM | GI50 (MOLT-4 leukemia) > 100 µM | GI50 (TK-10 renal) 81.6 µM | GI50 (ACHN renal) > 100 µM | GI50 (SF-539 CNS) > 100 µM | GI50 (NCI/ADR-RES ovarian) > 100 µM | GI50 (OVCAR-3 ovarian) > 100 µM | GI50 (MDA-MB-468 breast) 39.8 µM | GI50 (NCI-H23 lung) > 100 µM | GI50 (MCF7 breast) > 100 µM | GI50 (SF-268 CNS) > 100 µM | GI50 (SK-MEL-5 melanoma) > 100 µM | GI50 (SK-MEL-2 melanoma) > 100 µM | GI50 (A549 NSCLC) > 100 µM | GI50 (HOP-62 NSCLC) > 100 µM | GI50 (NCI-H522 lung) 60.9 µM | GI50 (DU-145 prostate) > 100 µM | GI50 (MDA-MB-435 melanoma) > 100 µM | GI50 (BT-549 breast) > 100 µM | GI50 (SR leukemia) > 100 µM | GI50 (CCRF-CEM leukemia) > 100 µM | GI50 (HCC-2998 colon) > 100 µM | GI50 (786-0 renal) > 100 µM | GI50 (NCI-H226 lung) 55.4 µM | GI50 (IGROV1 ovarian) > 100 µM | GI50 (UACC-257 melanoma) > 100 µM | GI50 (UACC-62 melanoma) > 100 µM | GI50 (HS 578T breast) > 100 µM | GI50 (NCI-H460 NSCLC) > 100 µM | GI50 (SK-MEL-28 melanoma) > 100 µM | GI50 (U251 glioblastoma) > 100 µM | GI50 (SW-620 colon) > 100 µM | GI50 (A498 renal) > 100 µM | GI50 (KM12 colon) > 100 µM | GI50 (PC-3 prostate) > 100 µM | GI50 (M14 melanoma) > 100 µM | GI50 (SF-295 CNS) > 100 µM | GI50 (SN12C renal) > 100 µM | GI50 (OVCAR-8 ovarian) > 100 µM | GI50 (HT29 colon) > 100 µM | GI50 (COLO 205 colon) > 100 µM | GI50 (CAKI-1 renal) > 100 µM
